Source: patent publication US20240410904A1, “NON-INVASIVE MONITORING OF LIVER DISEASE TREATMENT” (INVENTIVA, priority 2023, published 2024)

Experiments:
[1] = system: adult patients diagnosed with highly active, non-cirrhotic NASH; assay: NATIVE phase 2b trial of lanifibranor, liver histology response at Week 24; type: in vivo, human; conditions: once daily orally, 24 weeks
Description: Patients were eligible for inclusion if they were 18 years of age or older and had non-cirrhotic NASH (the diagnosis of which required a Steatosis, Activity, Fibrosis [SAF] grade of 1 or higher for steatosis, hepatocellular ballooning and lobular inflammation on liver biopsy). A score of 3 or higher on the SAF-A (the activity part of the SAF scoring system that incorporates the scores for hepatocellular ballooning and lobular inflammation) was also a criterion for eligibility. Patients with stage F4 fibrosis, classified according to the criteria of both the SAF and NASH Clinical Research Network (NASH CRN) were excluded from the study. Patients were randomly assigned in a 1:1:1 ratio to receive 800 or 1200 mg lanifibranor or placebo once daily for 24 weeks. Liver biopsy was obtained at baseline and at the end of treatment. The primary end point of the NATIVE study was defined as a decrease of at least 2 points from baseline to Week 24 (end of treatment) in the SAF-A score and no worsening of fibrosis. Secondary histologic end points included resolution of NASH (defined as a ballooning grade of 0 and a lobular inflammation grade of ≤1) and no worsening of fibrosis; improvement in fibrosis of at least 1 stage and no worsening of NASH (i.e., no worsening in either steatosis, ballooning, or lobular inflammation); Nonalcoholic Fatty Liver Disease Activity Score (NAS) improvement (defined as a decrease of ≥2 points from baseline to week 24 in the NAS) and no worsening of fibrosis; resolution of NASH and an improvement in fibrosis stage of at least 1 (as a composite end point); change in scores for the components of the SAF and NASH CRN scoring system (steatosis, activity, inflammation, ballooning, and fibrosis); and change in the modified Ishak score. Non-histologic secondary endpoints included changes in a panel of serum biomarkers related to metabolism, inflammation tissue injury and fibrosis. Patients receiving lanifibranor 800 or 1200 mg per day were pooled and those with pre- and post-treatment liver biopsies were selected (n=142). Post-treatment biopsies were considered if they occurred within 14 days following last lanifibranor intake. The following histological endpoint according to NASH-CRN criteria was considered: NASH resolution without worsening of fibrosis (E2). In the NATIVE trial, from February 2017 through July 2019, 247 patients were randomly assigned to receive 1200 mg of lanifibranor (N=83), 800 mg of lanifibranor (N=83), or placebo (N=81) orally once daily for 6 months. A total of 228 patients completed the trial, 77 in each lanifibranor group and 74 in the placebo group. Reasons for discontinuation of the trial regimen have been reported elsewhere. Finally, among the 154 patients treated with lanifibranor at both doses, 142 patients (N=70 and N=72 patients treated with 800 or 1200 mg per day, respectively) presented with pre- and post-treatment liver biopsies within the time frame required for the present work and were included in the analysis population for signature development.

[2] = system: adult patients diagnosed with highly active, non-cirrhotic NASH; conditions: background statement, cited from earlier work
[3] = 800 and 1200 mg per day pooled, analysis population N=142

O=C(O)CCCc1cc2cc(Cl)ccc2n1S(=O)(=O)c1ccc2ncsc2c1 [lanifibranor, 4-[1-(1,3-benzothiazol-6-ylsulfonyl)-5-chloroindol-2-yl]butanoic acid]
Resolution of NASH without worsening of liver fibrosis (E2), number of patients ([1]; 800 mg per day, N=70): 27 patients
Resolution of NASH without worsening of liver fibrosis (E2), percentage of patients ([1]; 800 mg per day, N=70): 39%
Resolution of NASH without worsening of liver fibrosis (E2), number of patients ([1]; 1200 mg per day, N=72): 36 patients
Resolution of NASH without worsening of liver fibrosis (E2), percentage of patients ([1]; 1200 mg per day, N=72): 50%
Resolution of NASH without worsening of liver fibrosis (E2), number of patients [1, 3]: 63 patients
Resolution of NASH without worsening of liver fibrosis (E2), percentage of patients [1, 3]: 44%
Percentage of patients with a decrease of at least 2 points in the SAF-A score without worsening of fibrosis, compared to placebo ([2]; daily dose of 1200 mg, patients with active NASH): significantly higher
Secondary endpoints (NASH resolution and fibrosis improvement, NASH resolution without worsening of fibrosis, improvement of fibrosis without worsening of NASH; NASH-CRN), compared to placebo ([2]; lanifibranor groups): more favorable than placebo
